Structures are written as SMILES.

Holding throughout (assay type): biochemical
The subject of one assay is elastase. The assay is described as follows: Elastase inhibition (MeOSuc-Ala-Ala-Pro-Val-pNa hydrolysis). The conditions noted are these: at 51.26 mg/L. How it is done:
(§1) The potential of cherry stem extract to inhibit hyaluronidase (HYALase), collagenase, elastase, tyrosinase, and xanthine oxidase enzymes was evaluated. The methods were carried out following previous studies.
The assessment of elastase enzyme inhibition was based on the release of p-nitroaniline resulting from the hydrolysis of the substrate MeOSuc-Ala-Ala-Pro-Val-pNa by elastase. The quantity of p-nitroaniline was gauged through absorbance readings at 405 nm. Elastatinal (ELA) was employed as the control for elastase inhibition. The control result was stated as % inhibition.
(§2) Results for cherry stem extract were presented as IC50 values at various extract concentrations, except for the enzyme tyrosinase, which was presented as IC55 value at various extract concentrations. All evaluations were performed in triplicate.

Assay [1] is described as follows: Hypochlorous acid scavenging (oxidation of DHR to rhodamine). The conditions noted are these: radical scavenging. On the procedure:
(§3) The ability of cherry stem extract to inhibit superoxide radical (O2^·−), hypochlorous acid (HOCl), and nitric oxide (NO^·) was evaluated. […] The scavenging properties of cherry stem extract and positive controls against the O2^·− radical were assessed colorimetrically by reduction of NBT to diformazan purple. The ability of the cherry stem extract to inhibit HOCl by inducing the oxidation of DHR to rhodamine was determined. The scavenging activity of cherry stem extract against NO^· was determined by oxidation of DAF-2. To assess the inhibition of O2^·−, NO^·, and HOCl radicals, epicatechin (EPI) and gallic acid (GA) were employed as reference controls. All results were expressed as IC50 value using different concentrations of cherry stem extract and all measurements were performed in triplicate.

Assay [2] can be described thus: Nitric oxide scavenging (oxidation of DAF-2). As to conditions: radical scavenging. How it is done:
as §3

Assay [3] in a line: Superoxide radical scavenging (reduction of NBT to diformazan). On the procedure: as §3
The next assay relates to hyaluronidase (HYALase). Description: HYALase inhibition assay (turbidity at 600 nm). On the procedure: The potential of cherry stem extract to inhibit hyaluronidase ([…]), collagenase, elastase, tyrosinase, and xanthine oxidase enzymes was evaluated. The methods were carried out following previous studies. The […] inhibition assay involves quantifying the reduction in transmitted light intensity caused by particles generated from the breakdown of hyaluronic acid (HYAL) by the […] enzyme. Absorbance readings were taken at 600 nm. EPI and GA were employed as controls to evaluate […] inhibition. The outcomes from the EPI and GA controls were reported as IC20 values. Results for cherry stem extract were presented as IC50 values at various extract concentrations, except for the enzyme tyrosinase, which was presented as IC55 value at various extract concentrations. All evaluations were performed in triplicate.

In a further assay the test system is tyrosinase. Description: Tyrosinase inhibition (Colorimetric Tyrosinase Inhibitor Detection Kit). As to conditions: at 21.3 mg/L. How it is done:
The potential of cherry stem extract to inhibit hyaluronidase ([…]), collagenase, elastase, tyrosinase, and xanthine oxidase enzymes was evaluated. The methods were carried out following previous studies. The evaluation of tyrosinase inhibition was conducted using a “Colorimetric Tyrosinase Inhibitor Detection Kit” sourced from Sigma-Aldrich, USA. Inhibition control was established with kojic acid (KA). The control outcome was represented as % inhibition. Results for cherry stem extract were presented as IC50 values at various extract concentrations, except for the enzyme tyrosinase, which was presented as IC55 value at various extract concentrations. All evaluations were performed in triplicate.

Another assay addresses collagenase. The assay is described as follows: Collagenase inhibition (FALGPA degradation). On the procedure:
as §1
The evaluation of collagenase enzyme activity is based on the colorimetric analysis of the degradation of the FALGPA substrate by the enzyme. The absorbance measurements were taken at 335 nm. Phenanthroline (PHE) was used as the control to assess collagenase inhibition, and the IC50 value was quantified as the control.
as §2

As for `CC(C)C[C@H](NC(=O)N[C@H](C(=O)N[C@@H](CCC(N)=O)C(=O)N[C@@H](C)C=O)[C@@H]1CCNC(=N)N1)C(=O)O` [ELA, elastatinal], in the assay with elastase, the Elastase % inhibition is 53 ± 5 ^4%.
For `Oc1cc(O)c2c(c1)O[C@H](c1ccc(O)c(O)c1)[C@H](O)C2` [EPI, epicatechin], the “HOCl inhibitory concentration at 50%” value in assay [1] was found to be 0.18 ± 0.01 mg/L. In addition, the “NO^· inhibitory concentration at 50%” value in assay [2] was determined as 0.87 ± 0.02 mg/L. Moreover, the “O2^·− inhibitory concentration at 50%” value in assay [3] was 70 ± 5 mg/L. For the same molecule, the “HYALase inhibitory concentration at 20% (IC20)” value in the assay with hyaluronidase (HYALase) is recorded as 167 ± 6 ^5 mg/L.
The corresponding values for `O=C(O)c1cc(O)c(O)c(O)c1` [GA, gallic acid] are 3.8 ± 0.3 mg/L, 1.4 ± 0.3 mg/L, 50 ± 3 mg/L and 102 ± 4 ^5 mg/L.
`O=c1cc(CO)occ1O` [KA, Kojic acid]: in the assay with tyrosinase, the Tyrosinase % inhibition was 49 ± 6 ^3%.
For the molecule `c1cnc2c(c1)ccc1cccnc12` [PHE, 1, 10-phenanthroline], the “Collagenase inhibitory concentration at 50%” value on collagenase amounted to 83 ± 2 mg/L.

Values taken from PMC11011441, “Bioactive Compounds and Potential Health Benefits through Cosmetic Applications of Cherry Stem Extract” (International Journal of Molecular Sciences, 2024).
